Patent US20170354148A1, “SAFENED HERBICIDAL COMPOSITIONS CONTAINING HALAUXIFEN AND METHODS OF USE THEREOF IN BRASSICA SPECIES” (Dow AgroSciences LLC, priority 2016, published 2017)

Tests used:
Settings in all cases: in vivo
[1] = test system: Roundup Ready® canola (Brassica napus, RR-BRSNN)
[2] = test system: winter oilseed rape (Brassica napus, BRSNW)
[3] = test system: rutabaga (Brassica napus var. napobrassica, BRSNA)
[4] = test system: turnip or Polish canola (Brassica rapa, BRSRR)
[5] = test system: Nexera™ canola (Brassica napus, BRSNN-NEX)
[6] = test system: kale/Chinese kale (Brassica alboglabra, BRSAG)

CCCCCC(C)OC(=O)COc1ccc(Cl)c2cccnc12 (stereo not drawn) [Cloquintocet-mexyl, 1-methylhexyl (5-chloroquinolin-8-yloxy)acetate]
0%: Percent (%) Visual Injury RR-BRSNN Obs [1] | Percent (%) Visual Injury BRSNW Obs [2] | Percent (%) Visual Injury BRSNA Obs [3] | Percent (%) Visual Injury BRSRR Obs [4] | Percent (%) Visual Injury BRSNN-NEX Obs [5] | Percent (%) Visual Injury BRSAG Obs [6]
